Data: patent publication US8236826B2, “Diarylether derivatives as antitumor agents” (Otsuka Pharmaceutical Co., Ltd., priority 2005, dated 2012)
Where a name gives a salt, the structure may show the parent alone.

Molecule `Cc1cc(N(C)CC(=O)N2CCN(Cc3ccoc3)CC2)ccc1Oc1ccc(NC(=O)c2ccc(C(F)(F)F)cc2)cn1` (as salt: hydrochloride) [Example 792] has a melting point of 158.5 to 161 °C.
In the case of `Cc1cc(N(C)CC(=O)N2CCN(Cc3ccc4c(c3)OCO4)CC2)ccc1Oc1ccc(NC(=O)c2ccc(Cl)c(Cl)c2)cn1` (as salt: hydrochloride) [Example 1512], the melting point is reported as 183 to 185 °C (dec.).
Work on `O=C(Nc1ccc(Oc2ccc(C3CCN(C(=O)CN4CCOCC4)CC3)cc2)cc1)c1ccc(Cl)c(Cl)c1` (as salt: hydrochloride) [Example 2571] yielded a melting point of 146 to 150 °C.
Work on `CCN(CC(=O)N1CCN(Cc2ccccc2)CC1)c1ccc(Oc2ccc(NC(=O)c3ccc(C(F)(F)F)cc3)cn2)c(C)c1` (as salt: maleate) [Example 1513] yielded a melting point of 165 to 167 °C.
Work on `O=C(Nc1ccc(Oc2ccc(C(=O)N3CCOCC3)cc2)cc1)c1ccc(Cl)c(Cl)c1` [Example 10] yielded a melting point of 189 to 192 °C.
In the case of `O=C(Nc1ccc(Oc2ccc(C(=O)N3CCOCC3)cc2)c(F)c1)c1ccc(Cl)c(Cl)c1` [Example 11], the melting point is reported as 203 to 204 °C.
Molecule `O=C(Nc1ccc(Oc2ccc(C(=O)N3CCN(c4ccccn4)CC3)cc2)nc1)c1ccc(C(F)(F)F)cc1` [Example 176] has a melting point of 222 to 224 °C.
With `CC(C)(C)OC(=O)N1CCN(C(=O)CCc2ccc(Oc3ccc(NC(=O)c4ccc(Cl)c(Cl)c4)cc3F)cc2)CC1` [Example 464] the melting point was 155 to 157 °C.
`O=C(Nc1ccc(Oc2ccc(CCC(=O)N3CCN(c4cccnc4)CC3)cc2)cc1)c1ccc(Cl)c(Cl)c1` [Example 466] showed a melting point of 153 to 155 °C.
With `O=C(Nc1ccc(Oc2ccc(CCC(=O)N3CCN(c4cccnc4)CC3)cc2)c(F)c1)c1ccc(Cl)c(Cl)c1` [Example 467] the melting point was 183 to 185 °C.
In the case of `Cc1cc(N(C)CC(=O)N2CCN(Cc3ccoc3)CC2)ccc1Oc1ccc(NC(=O)c2ccc(Cl)c(Cl)c2)cn1` [Example 718], the melting point is reported as 116.5 to 118 °C.
In the case of `CC(=O)N(CC(=O)N1CCN(Cc2ccc3c(c2)OCO3)CC1)c1ccc(Oc2ccc(NC(=O)c3ccc(Cl)c(Cl)c3)cn2)c(C)c1` [Example 725], the melting point is reported as 216 to 217 °C.
Molecule `CCN(CC(=O)N1CCN(Cc2ccc3c(c2)OCO3)CC1)c1ccc(Oc2ccc(NC(=O)c3ccc(Cl)c(Cl)c3)cn2)c(F)c1` [Example 728] has a melting point of 149 to 151 °C.
Work on `CN(CC(=O)N1CCN(Cc2ccc3c(c2)OCO3)CC1)c1ccc(Oc2ccc(NC(=O)c3ccc(Cl)c(Cl)c3)cn2)c(F)c1` [Example 729] yielded a melting point of 199 to 201 °C.
`CC(=O)N(CC(=O)N1CCN(Cc2ccc3c(c2)OCO3)CC1)c1ccc(Oc2ccc(NC(=O)c3ccc(Cl)c(Cl)c3)cn2)c(F)c1` [Example 730] gave a melting point of 233 to 235 °C.
For `CC(=O)N(CC(=O)N1CCN(Cc2ccccc2)CC1)c1ccc(Oc2ccc(NC(=O)c3ccc(C(F)(F)F)cc3)cn2)cc1` [Example 771], the melting point was 161 to 162 °C.
Molecule `CCN(CC(=O)N1CCN(Cc2ccc3c(c2)OCO3)CC1)c1ccc(Oc2ccc(NC(=O)c3ccc(C(F)(F)F)cc3)cn2)cc1` [Example 774] has a melting point of 178 to 180 °C.
With `CCN(CC(=O)N1CCN(Cc2ccc3c(c2)OCO3)CC1)c1ccc(Oc2ccc(NC(=O)c3ccc(C(F)(F)F)cc3)cn2)c(F)c1` [Example 775] the melting point was 170 to 172 °C.
Work on `CN(CC(=O)N1CCN(Cc2ccc3c(c2)OCO3)CC1)c1ccc(Oc2ccc(NC(=O)c3ccc(C(F)(F)F)cc3)cn2)c(F)c1` [Example 776] yielded a melting point of 220 to 221 °C.
For `CCN(CC(=O)N1CCN(Cc2ccoc2)CC1)c1ccc(Oc2ccc(NC(=O)c3ccc(C(F)(F)F)cc3)cn2)c(OC)c1` [Example 784], the melting point was 174 to 176 °C.
`COc1cc(N(C)CC(=O)N2CCN(Cc3ccoc3)CC2)ccc1Oc1ccc(NC(=O)c2ccc(C(F)(F)F)cc2)cn1` [Example 785] showed a melting point of 160 to 164 °C.
For `Br.CN(CC(=O)N1CCN(Cc2ccc3c(c2)OCO3)CC1)c1cc(F)c(Oc2ccc(C(=O)Nc3ccc(C(F)(F)F)cc3)cn2)cc1F` [Example 1037, 6-(4-{[2-(4-Piperonylpiperazin-1-yl)-2-oxoethyl]methylamino}-2,5-difluorophenoxy)-N-(4-trifluoromethylphenyl)nicotinamide hydrobromide], the melting point was 224.5 to 226 °C.
With `O=C(Nc1ccc(Oc2ccc(N3CCN(Cc4ccccc4)C3=O)cc2)nc1)c1ccc(C(F)(F)F)cc1` [Example 1181] the melting point was 203 to 204 °C.
Work on `O=C(Nc1ccc(Oc2ccc(N3CCN(Cc4ccccc4)C3=O)cc2)nc1)c1ccc(Cl)c(Cl)c1` [Example 1182] yielded a melting point of 186 to 187 °C.
For `Cc1cc(N2CCCN(Cc3ccc4c(c3)OCO4)C2=O)ccc1Oc1ccc(NC(=O)c2ccc(C(F)(F)F)cc2)cn1` [Example 1183], the melting point was 165 to 166 °C.
With `Cc1cc(N2CCCN(Cc3ccc4c(c3)OCO4)C2=O)ccc1Oc1ccc(NC(=O)c2ccc(Cl)c(Cl)c2)cn1` [Example 1184] the melting point was 122 to 124 °C.
For `COc1ccc(CN2CCCN(c3ccc(Oc4ccc(NC(=O)c5ccc(C(F)(F)F)cc5)cn4)c(C)c3)C2=O)cc1OC` [Example 1185], the melting point was 155 to 157 °C.
In the case of `Cc1cc(N2CCCN(CC(=O)N3CCN(Cc4ccc5c(c4)OCO5)CC3)C2=O)ccc1Oc1ccc(NC(=O)c2ccc(C(F)(F)F)cc2)cn1` [Example 1186], the melting point is reported as 182 to 183.5 °C.
With `COc1ccc(CN2CCCN(c3ccc(Oc4ccc(NC(=O)c5ccc(Cl)c(Cl)c5)cn4)c(C)c3)C2=O)cc1OC` [Example 1187] the melting point was 117 to 118 °C.
In the case of `CCOC(=O)c1ccc(N2CCCN(c3ccc(Oc4ccc(NC(=O)c5ccc(C(F)(F)F)cc5)cn4)c(C)c3)C2=O)cc1` [Example 1188], the melting point is reported as 160 to 161 °C.
With `Cc1cc(N2CCN(Cc3ccc4c(c3)OCO4)C2=O)ccc1Oc1ccc(NC(=O)c2ccc(C(F)(F)F)cc2)cn1` [Example 1504, N-{6-[2-methyl-4-(2-oxo-3-piperonylimidazolidin-1-yl)phenoxy]pyridin-3-yl}-4-trifluoromethylbenzamide] the melting point was 188 to 189 °C.
Molecule `CCN(CC(=O)N1CCN(Cc2ccccc2)CC1)c1ccc(Oc2ccc(NC(=O)c3ccc(Cl)c(Cl)c3)cn2)c(C)c1` [Example 1514] has a melting point of 102 to 105 °C.
In the case of `Cc1cc(N(C)CC(=O)N2CCN(Cc3ccccc3)CC2)ccc1Oc1ccc(NC(=O)c2ccc(C(F)(F)F)cc2)cn1` [Example 1515], the melting point is reported as 110 to 111 °C.
`Cc1cc(N(C)CC(=O)N2CCN(Cc3ccccc3)CC2)ccc1Oc1ccc(NC(=O)c2ccc(Cl)c(Cl)c2)cn1` [Example 1516] showed a melting point of 111 to 113 °C.
Molecule `CN(CC(=O)N1CCN(Cc2ccc3c(c2)OCO3)CC1)c1ccc(Oc2ccc(NS(=O)(=O)c3ccc(Cl)c(Cl)c3)cn2)c(F)c1` [Example 1615, 3,4-dichloro-N-[6-(2-fluoro-4-{methyl[2-oxo-2-(4-piperonylpiperazin-1-yl)ethyl]amino}phenoxy)pyridin-3-yl]benzenesulfonamide] has a melting point of 185.6 to 187 °C.
Molecule `O=C(Nc1ccc(Oc2ccc(N3CCN(S(=O)(=O)c4ccccc4)CC3)cc2)cc1)c1ccc(Cl)c(Cl)c1` [Example 2031, N-{4-[4-(4-benzenesulfonylpiperazin-1-yl)phenoxy]phenyl}-3,4-dichlorobenzamide] has a melting point of 191 to 192 °C.
Molecule `O=C(Nc1ccc(Oc2ccc(N3CCN(C(=O)COc4ccccc4)CC3)cc2)cc1)c1ccc(Cl)c(Cl)c1` [Example 2052] has a melting point of 171 to 173 °C.
`O=C(Nc1ccc(Oc2ccc(N3CCN(C(=O)COc4ccc5c(c4)OCO5)CC3)cc2)cc1)c1ccc(Cl)c(Cl)c1` [Example 2053] showed a melting point of 116 to 118 °C.
Work on `Cc1cc(N(C)CC(=O)N2CCN(C(=O)c3ccc4c(c3)OCO4)CC2)ccc1Oc1ccc(NC(=O)c2ccc(Cl)c(Cl)c2)cn1` [Example 2054] yielded a melting point of 133 to 135 °C.
For `CC(=O)N(c1ccc(CCC(=O)N2CCN(Cc3ccc4c(c3)OCO4)CC2)cc1)c1ccc(NC(=O)c2ccc(Cl)c(Cl)c2)cn1` [Example 2099, N-[6-(Acetyl{4-[3-oxo-3-(4-piperonylpiperazin-1-yl)propyl]phenyl}amino)pyridin-3-yl]-3,4-dichlorobenzamide], the melting point was 150 to 165 °C.
In the case of `O=C(Nc1ccc(Oc2ccc(C3=CCN(CCCn4ccnc4)CC3)cc2)cc1)c1ccc(Cl)c(Cl)c1` [Example 2486, 3,4-Dichloro-N-(4-{4-[1-(3-imidazole-1-ylpropyl)-1,2,3,6-tetrahydropyridine-4-yl]phenoxy}phenyl)-benzamide], the melting point is reported as 169 to 171 °C.
`O=C(Nc1ccc(Oc2ccc(N3CCN(C(=O)CN4CCOCC4)CC3)cc2)cc1)c1ccc(Cl)c(Cl)c1` [Example 2559] gave a melting point of 177 to 178 °C.
Molecule `O=C(CN1CCOCC1)c1ccc(Oc2ccc(NC(=O)c3ccc(Cl)c(Cl)c3)cc2F)cc1` [Example 2563] has a melting point of 177 to 178 °C.
With `O=C(Nc1ccc(Oc2ccc(C3=CCN(C(=O)CN4CCOCC4)CC3)cc2)cc1)c1ccc(Cl)c(Cl)c1` [Example 2565] the melting point was 195 to 197 °C.
For `CN(C(=O)CN1CCOCC1)C1CCN(c2ccc(Oc3ccc(NC(=O)c4ccc(Cl)c(Cl)c4)cc3)cc2)CC1` [Example 2572], the melting point was 157 to 160 °C.
In the case of `Cc1cc(N2CCC(CC(=O)N3CCN(Cc4ccc5c(c4)OCO5)CC3)CC2)ccc1Oc1ccc(NS(=O)(=O)c2ccc(C(F)(F)F)cc2)cn1` [Example 2703, N-[6-(4-{4-[2-(4-piperonylpiperazin-1-yl)-2-oxoethyl]piperidin-1-yl}-2-methylphenoxy)pyridin-3-yl]-4-trifluoromethylbenzenesulfonamide], the melting point is reported as 156 to 158 °C.
In the case of `O=C(C1CCN(c2ccc(Oc3ccc(NS(=O)(=O)c4ccc(Cl)c(Cl)c4)cn3)cc2)CC1)N1CCN(Cc2ccccc2)CC1` [Example 2710, N-(6-{4-[4-(4-benzylpiperazine-1-carbonyl)piperidin-1-yl]phenoxy}pyridin-3-yl)-3,4-dichlorobenzenesulfonamide], the melting point is reported as 185 to 189 °C.
`Cc1cc(N(C)CC(=O)N2CCN(Cc3ccc4c(c3)OCO4)CC2)ccc1Oc1ccc(NC(=O)c2ccc(-n3cccc3)cc2)cn1` [Example 2711, N-[6-(4-{[2-(4-piperonylpiperazin-1-yl)-2-oxoethyl]methylamino}-2-methylphenoxy)pyridin-3-yl]-4-pyrrole-1-ylbenzamide] gave a melting point of 163.1 to 166.5 °C.
